According to ChEMBL document CHEMBL4130451, “Design and Synthesis of N-Aryl Phenoxyethoxy Pyridinones as Highly Selective and CNS Penetrant mGlu3 NAMs” (ACS Med Chem Lett, 2017):
The source made the active and inactive calls. No cut-off for these calls is given here.

Assays:
[1] = target: Metabotropic glutamate receptor 5 (Rattus norvegicus, UniProt P31424); assay: Positive allosteric modulation of rat mGlu5 receptor expressed in HEK293A cells assessed as increase in glutamate induced-calcium mobilization preincubated for 2.3 mins followed by glutamate addition measured for 1.9 mins by Fluo-4 AM dye based fluorescence assay; type: functional, cell-based
[2] = target: Cytochrome P450 3A4 (Homo sapiens, UniProt P08684); assay: Inhibition of CYP3A4 in human liver microsomes using midazolam as substrate after 15 mins in presence of NADPH by LC/MS/MS analysis; type: ADME
[3] = target: Cytochrome P450 2D6 (Homo sapiens, UniProt P10635); assay: Inhibition of CYP2D6 in human liver microsomes using dextromethorphan as substrate after 15 mins in presence of NADPH by LC/MS/MS analysis; type: ADME
[4] = target: Cytochrome P450 1A2 (Homo sapiens, UniProt P05177); assay: Inhibition of CYP1A2 in human liver microsomes using phenacetin as substrate after 15 mins in presence of NADPH by LC/MS/MS analysis; type: ADME
[5] = Fraction unbound in rat plasma at 5 uM after 4 hrs by equilibrium dialysis based LC/MS/MS analysis; type: ADME, cell-free
[6] = Fraction unbound in rat brain homogenate at 5 uM after 6 hrs by equilibrium dialysis based LC/MS/MS analysis; type: ADME, tissue-based
[7] = Brain to plasma partition coefficient, Kp of the compound in rat; type: ADME
[8] = target: Metabotropic glutamate receptor 4 (Rattus norvegicus) (UniProt P31423); assay: Negative allosteric modulation of rat mGlu4 receptor expressed in HEK/GIRK cells assessed as inhibition of glutamate induced-calcium mobilization preincubated for 2.3 mins followed by glutamate addition measured for 2.6 mins by Fluo-4 AM dye based fluorescence assay; type: functional, cell-based
[9] = target: Metabotropic glutamate receptor 7 (Rattus norvegicus) (UniProt P35400); assay: Negative allosteric modulation of rat mGlu7 receptor expressed in HEK/GIRK cells assessed as inhibition of L-AP4 induced-calcium mobilization preincubated for 2.3 mins followed by L-AP4 addition measured for 2.6 mins by Fluo-4 AM dye based fluorescence assay; type: functional, cell-based
[10] = target: Metabotropic glutamate receptor 8 (Rattus norvegicus) (UniProt P70579); assay: Negative allosteric modulation of rat mGlu8 receptor expressed in HEK/GIRK cells assessed as inhibition of glutamate induced-calcium mobilization preincubated for 2.3 mins followed by glutamate addition measured for 2.6 mins by Fluo-4 AM dye based fluorescence assay; type: functional, cell-based
Metabotropic glutamate receptor 8 (Rattus norvegicus), sequence (P70579 whole entry): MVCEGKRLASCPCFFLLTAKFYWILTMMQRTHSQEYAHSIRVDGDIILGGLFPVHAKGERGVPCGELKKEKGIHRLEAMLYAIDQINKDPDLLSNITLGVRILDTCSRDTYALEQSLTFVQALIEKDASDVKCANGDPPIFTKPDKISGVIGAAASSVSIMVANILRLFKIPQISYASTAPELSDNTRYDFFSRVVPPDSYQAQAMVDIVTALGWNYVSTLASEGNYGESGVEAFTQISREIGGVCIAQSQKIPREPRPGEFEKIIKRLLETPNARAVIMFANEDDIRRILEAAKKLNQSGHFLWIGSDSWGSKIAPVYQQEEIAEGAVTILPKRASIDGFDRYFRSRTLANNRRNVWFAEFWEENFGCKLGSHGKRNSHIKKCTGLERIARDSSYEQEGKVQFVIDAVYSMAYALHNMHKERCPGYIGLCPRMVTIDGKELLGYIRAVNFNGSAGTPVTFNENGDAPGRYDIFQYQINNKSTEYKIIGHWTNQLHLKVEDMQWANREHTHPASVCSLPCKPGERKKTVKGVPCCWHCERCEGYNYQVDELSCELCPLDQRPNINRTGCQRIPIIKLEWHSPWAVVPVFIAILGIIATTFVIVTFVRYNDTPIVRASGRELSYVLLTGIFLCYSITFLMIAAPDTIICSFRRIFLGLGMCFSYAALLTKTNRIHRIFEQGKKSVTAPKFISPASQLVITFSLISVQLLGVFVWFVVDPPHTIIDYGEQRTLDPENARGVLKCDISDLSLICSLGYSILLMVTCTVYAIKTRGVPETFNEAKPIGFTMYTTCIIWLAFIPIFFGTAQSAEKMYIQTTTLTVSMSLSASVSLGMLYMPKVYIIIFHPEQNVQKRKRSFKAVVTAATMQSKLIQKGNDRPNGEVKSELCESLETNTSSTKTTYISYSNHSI

[11] = Unbound brain to plasma concentration ratio in mouse; type: ADME; details: read-out: K(p,uu,brain)
[12] = system: Mus musculus; assay: Antidepressant activity in CD-1 mouse assessed as reduction in immobility time administered ip 15 mins prior to test measured for 6 mins by tail suspension test; type: functional; details: CD-1, ip, read-out: MED
[13] = Brain to plasma partition coefficient, Kp of the compound in Harlan CD-1 mouse at 3 mg/kg, ip by LC/MS-MS analysis; type: ADME, organism-based
[14] = Ratio of drug uptake in Harlan CD-1 mouse brain at 3 mg/kg, ip to IC50 for negative allosteric modulation of rat mGlu3 receptor expressed in TREX cells coexpressing Galpha15; type: ADME, organism-based; details: in vivo
[15] = target: Alpha-1B adrenergic receptor (Rattus norvegicus) (UniProt P15823); assay: Inhibition of rat adrenergic alpha 1B receptor at 10 uM relative to control
Alpha-1B adrenergic receptor (Rattus norvegicus), sequence (P15823 whole entry): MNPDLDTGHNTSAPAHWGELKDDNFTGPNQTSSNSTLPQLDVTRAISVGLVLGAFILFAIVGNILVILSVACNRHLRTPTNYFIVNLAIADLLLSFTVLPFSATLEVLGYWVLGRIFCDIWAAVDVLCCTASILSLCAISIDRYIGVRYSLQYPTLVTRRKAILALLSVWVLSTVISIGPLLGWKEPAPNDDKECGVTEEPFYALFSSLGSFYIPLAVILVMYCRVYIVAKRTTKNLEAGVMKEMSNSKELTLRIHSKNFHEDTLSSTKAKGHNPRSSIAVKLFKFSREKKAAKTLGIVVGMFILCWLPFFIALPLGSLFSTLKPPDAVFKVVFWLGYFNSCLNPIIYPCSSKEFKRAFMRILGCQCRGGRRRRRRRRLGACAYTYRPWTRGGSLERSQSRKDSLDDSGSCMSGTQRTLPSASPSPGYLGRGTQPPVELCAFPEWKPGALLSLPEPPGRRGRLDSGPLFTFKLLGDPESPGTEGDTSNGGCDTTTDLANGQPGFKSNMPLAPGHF

[16] = target: Alpha-2A adrenergic receptor (Homo sapiens) (UniProt P08913); assay: Inhibition of human adrenergic alpha 2A receptor at 10 uM relative to control
Alpha-2A adrenergic receptor (Homo sapiens), sequence (P08913 whole entry): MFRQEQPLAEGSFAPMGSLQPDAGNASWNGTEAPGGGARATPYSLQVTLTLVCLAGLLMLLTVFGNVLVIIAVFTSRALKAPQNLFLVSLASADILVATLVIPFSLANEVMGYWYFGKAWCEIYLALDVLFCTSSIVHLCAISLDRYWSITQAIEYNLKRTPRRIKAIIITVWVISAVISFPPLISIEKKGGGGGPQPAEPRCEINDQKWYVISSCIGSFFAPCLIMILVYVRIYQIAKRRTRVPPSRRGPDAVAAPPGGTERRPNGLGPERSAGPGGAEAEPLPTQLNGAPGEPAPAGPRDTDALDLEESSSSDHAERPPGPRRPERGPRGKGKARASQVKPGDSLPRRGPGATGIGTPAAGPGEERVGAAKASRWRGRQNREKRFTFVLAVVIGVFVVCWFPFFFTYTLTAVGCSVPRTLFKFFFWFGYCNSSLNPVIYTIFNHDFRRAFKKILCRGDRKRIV

[17] = target: Beta-2 adrenergic receptor (Homo sapiens) (UniProt P07550); assay: Inhibition of human adrenergic beta2 receptor at 10 uM relative to control
[18] = species on record: Rattus norvegicus; assay: Inhibition of rat N-type calcium channel […] at 10 uM relative to control
[19] = target: Endothelin-1 receptor (Homo sapiens) (UniProt P25101); assay: Inhibition of human endothelin A receptor at 10 uM relative to control
Endothelin-1 receptor (Homo sapiens), sequence (P25101 whole entry): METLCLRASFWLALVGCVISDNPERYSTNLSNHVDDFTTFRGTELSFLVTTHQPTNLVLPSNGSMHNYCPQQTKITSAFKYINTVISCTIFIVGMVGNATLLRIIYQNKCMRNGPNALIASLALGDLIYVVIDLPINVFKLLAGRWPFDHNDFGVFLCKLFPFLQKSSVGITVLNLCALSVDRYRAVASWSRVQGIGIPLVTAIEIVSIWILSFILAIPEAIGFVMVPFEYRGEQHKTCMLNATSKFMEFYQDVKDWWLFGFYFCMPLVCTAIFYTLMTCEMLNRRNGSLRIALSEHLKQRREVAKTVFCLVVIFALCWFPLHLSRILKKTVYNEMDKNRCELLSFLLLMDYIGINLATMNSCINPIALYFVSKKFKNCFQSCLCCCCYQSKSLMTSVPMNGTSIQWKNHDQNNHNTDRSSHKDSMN

[20] = target: Estrogen receptor (Homo sapiens) (UniProt P03372); assay: Inhibition of human ERalpha receptor at 10 uM relative to control
[21] = species on record: Rattus norvegicus; assay: Inhibition of rat central GABA-A receptor muscimol site at 10 uM relative to control
[22] = target: Glutamate NMDA receptor (Rattus norvegicus) (UniProt P35439+Q00959+Q00960+Q00961+Q62645+Q8VHN2+Q9R1M7); assay: Inhibition of rat glutamate NMDA receptor phencyclidine binding site at 10 uM relative to control; type: protein-complex assay
[23] = target: Histamine H1 receptor (Homo sapiens) (UniProt P35367); assay: Inhibition of human histamine H1 receptor at 10 uM relative to control
[24] = target: Histamine H2 receptor (Homo sapiens) (UniProt P25021); assay: Inhibition of human histamine H2 receptor at 10 uM relative to control
[25] = target: Histamine H3 receptor (Homo sapiens) (UniProt Q9Y5N1); assay: Inhibition of human histamine H3 receptor at 10 uM relative to control
Histamine H3 receptor (Homo sapiens), sequence (Q9Y5N1 whole entry): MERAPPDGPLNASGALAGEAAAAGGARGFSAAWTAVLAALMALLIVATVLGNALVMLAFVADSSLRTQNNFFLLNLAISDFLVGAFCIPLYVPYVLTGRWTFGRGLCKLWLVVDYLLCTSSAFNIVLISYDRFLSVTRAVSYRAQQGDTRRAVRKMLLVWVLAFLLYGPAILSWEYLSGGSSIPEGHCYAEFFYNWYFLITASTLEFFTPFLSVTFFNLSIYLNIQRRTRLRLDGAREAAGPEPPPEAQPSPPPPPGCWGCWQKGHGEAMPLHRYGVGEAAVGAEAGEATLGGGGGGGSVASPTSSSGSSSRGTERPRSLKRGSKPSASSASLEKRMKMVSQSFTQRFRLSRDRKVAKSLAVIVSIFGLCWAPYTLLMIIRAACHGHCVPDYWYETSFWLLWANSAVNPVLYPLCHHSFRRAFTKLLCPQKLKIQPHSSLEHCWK

[26] = target: Cysteinyl leukotriene receptor 1 (Homo sapiens) (UniProt Q9Y271); assay: Inhibition of human cysteinyl cys leukotriene receptor 1 at 10 uM relative to control
Cysteinyl leukotriene receptor 1 (Homo sapiens), sequence (Q9Y271 whole entry): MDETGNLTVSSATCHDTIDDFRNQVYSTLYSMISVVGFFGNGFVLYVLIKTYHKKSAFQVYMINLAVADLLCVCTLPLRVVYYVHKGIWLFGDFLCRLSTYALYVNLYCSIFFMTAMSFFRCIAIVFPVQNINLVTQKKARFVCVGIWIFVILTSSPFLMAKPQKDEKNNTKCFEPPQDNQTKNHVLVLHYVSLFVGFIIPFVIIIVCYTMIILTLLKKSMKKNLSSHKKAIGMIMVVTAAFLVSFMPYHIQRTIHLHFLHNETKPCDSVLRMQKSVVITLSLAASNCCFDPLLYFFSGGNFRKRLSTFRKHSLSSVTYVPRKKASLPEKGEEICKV

[27] = target: Melatonin receptor type 1A (Homo sapiens) (UniProt P48039); assay: Inhibition of human MT1 receptor at 10 uM relative to control
[28] = target: Muscarinic acetylcholine receptor M2 (Homo sapiens) (UniProt P08172); assay: Inhibition of human muscarinic M2 receptor at 10 uM relative to control
Muscarinic acetylcholine receptor M2 (Homo sapiens), sequence (P08172 whole entry): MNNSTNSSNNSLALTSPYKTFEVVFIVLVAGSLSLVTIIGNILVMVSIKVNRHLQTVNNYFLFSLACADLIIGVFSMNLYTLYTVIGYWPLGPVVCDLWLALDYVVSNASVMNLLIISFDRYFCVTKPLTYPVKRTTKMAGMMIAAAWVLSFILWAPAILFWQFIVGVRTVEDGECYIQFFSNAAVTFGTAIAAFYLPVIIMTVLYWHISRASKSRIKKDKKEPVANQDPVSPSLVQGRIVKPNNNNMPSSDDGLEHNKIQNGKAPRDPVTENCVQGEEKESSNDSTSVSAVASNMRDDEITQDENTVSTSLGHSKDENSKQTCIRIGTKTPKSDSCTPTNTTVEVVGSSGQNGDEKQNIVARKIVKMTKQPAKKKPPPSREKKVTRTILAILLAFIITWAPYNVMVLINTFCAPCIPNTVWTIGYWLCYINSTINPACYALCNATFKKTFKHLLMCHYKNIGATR

[29] = target: Neuropeptide Y receptor type 1 (Homo sapiens) (UniProt P25929); assay: Inhibition of human […] Y1 receptor at 10 uM relative to control
Neuropeptide Y receptor type 1 (Homo sapiens), sequence (P25929 whole entry): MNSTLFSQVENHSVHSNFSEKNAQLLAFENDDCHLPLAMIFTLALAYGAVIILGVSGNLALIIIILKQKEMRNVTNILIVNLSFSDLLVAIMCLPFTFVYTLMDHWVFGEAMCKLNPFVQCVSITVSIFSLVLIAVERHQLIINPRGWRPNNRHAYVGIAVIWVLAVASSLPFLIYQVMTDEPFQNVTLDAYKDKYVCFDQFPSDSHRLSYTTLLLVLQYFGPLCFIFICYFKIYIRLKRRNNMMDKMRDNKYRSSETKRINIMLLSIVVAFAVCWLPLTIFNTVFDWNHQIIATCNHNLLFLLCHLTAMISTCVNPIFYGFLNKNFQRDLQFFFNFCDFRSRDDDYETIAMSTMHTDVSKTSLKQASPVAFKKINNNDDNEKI

[30] = target: Neuropeptide Y receptor type 2 (Homo sapiens) (UniProt P49146); assay: Inhibition of human […] Y2 receptor at 10 uM relative to control
Neuropeptide Y receptor type 2 (Homo sapiens), sequence (P49146 whole entry): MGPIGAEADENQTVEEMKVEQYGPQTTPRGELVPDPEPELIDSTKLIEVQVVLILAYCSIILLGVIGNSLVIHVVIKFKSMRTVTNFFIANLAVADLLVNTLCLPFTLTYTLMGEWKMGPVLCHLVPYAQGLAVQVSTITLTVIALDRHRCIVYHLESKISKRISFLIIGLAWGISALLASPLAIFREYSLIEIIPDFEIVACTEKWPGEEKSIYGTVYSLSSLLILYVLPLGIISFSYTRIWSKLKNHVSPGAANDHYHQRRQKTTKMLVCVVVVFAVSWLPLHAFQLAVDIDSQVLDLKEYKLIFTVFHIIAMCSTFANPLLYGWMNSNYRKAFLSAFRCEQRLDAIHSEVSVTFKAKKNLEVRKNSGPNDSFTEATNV

[31] = species on record: Homo sapiens; assay: Inhibition of human nicotinic acetylcholine receptor at 10 uM relative to control
[32] = target: Kappa-type opioid receptor (Homo sapiens) (UniProt P41145); assay: Inhibition of human kappa opioid receptor at 10 uM relative to control
[33] = species on record: Mus musculus; assay: Inhibition of mouse phorbol ester receptor at 10 uM relative to control
[34] = target: Platelet-activating factor receptor (Homo sapiens) (UniProt P25105); assay: Inhibition of human platelet activating factor receptor at 10 uM relative to control
Platelet-activating factor receptor (Homo sapiens), sequence (P25105 whole entry): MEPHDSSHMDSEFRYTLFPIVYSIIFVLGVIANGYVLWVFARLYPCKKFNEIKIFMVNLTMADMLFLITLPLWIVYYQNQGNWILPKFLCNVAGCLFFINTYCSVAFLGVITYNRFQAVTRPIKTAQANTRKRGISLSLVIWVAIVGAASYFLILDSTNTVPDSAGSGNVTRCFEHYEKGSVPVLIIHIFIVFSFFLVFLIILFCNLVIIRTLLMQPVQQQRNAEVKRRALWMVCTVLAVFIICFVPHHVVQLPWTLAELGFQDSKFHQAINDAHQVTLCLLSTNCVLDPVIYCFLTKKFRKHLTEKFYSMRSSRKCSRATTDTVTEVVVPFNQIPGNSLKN

[35] = species on record: Mesocricetus auratus; assay: Inhibition of syrian hamster KATP at 10 uM relative to control
[36] = target: hERG (KCNH2) (Homo sapiens, UniProt Q12809); assay: Inhibition of human ERG at 10 uM relative to control
[37] = species on record: Rattus norvegicus; assay: Inhibition of rat rolipram binding site at 10 uM relative to control
[38] = species on record: Rattus norvegicus; assay: Inhibition of rat sodium channel site 2 at 10 uM relative to control
[39] = target: Substance-P receptor (Homo sapiens) (UniProt P25103); assay: Inhibition of human tachykinin NK1 receptor at 10 uM relative to control
[40] = species on record: Rattus norvegicus; assay: Inhibition of rat thyroid hormone receptor at 10 uM relative to control
[41] = species on record: Rattus norvegicus; assay: Inhibition of rat GABA receptor at 10 uM relative to control

C[C@@H](COc1ccn(-c2ccc(F)cc2)c(=O)c1)Oc1ccccc1
EC50 [1]: > 30 µM | IC50 [2]: > 30 µM | IC50 [3]: > 30 µM | IC50 [4]: > 30 µM | fraction unbound at 4 h, 5 µM [5]: 0.18 | fraction unbound at 6 h, 5 µM [6]: 0.06 | Kp [7]: 1.15 | inhibition [8]: inactive | inhibition [9]: inactive | inhibition [10]: inactive | Kp uu [11]: 0.26 | minimal effective dose [12]: 3 mg/kg | Kp [13]: 1.2 | Ratio [14]: 5 | inhibition [15]: > 50% | inhibition [16]: > 50% | inhibition [17]: > 50% | inhibition [18]: > 50% | inhibition [19]: > 50% | inhibition [20]: > 50% | inhibition [21]: > 50% | inhibition [22]: > 50% | inhibition [23]: > 50% | inhibition [24]: > 50% | inhibition [25]: > 50% | inhibition [26]: > 50% | inhibition [27]: > 50% | inhibition [28]: > 50% | inhibition [29]: > 50% | inhibition [30]: > 50% | inhibition [31]: > 50% | inhibition [32]: > 50% | inhibition [33]: > 50% | inhibition [34]: > 50% | inhibition [35]: > 50% | inhibition at 10 µM [36]: > 50% | inhibition [37]: > 50% | inhibition [38]: > 50% | inhibition [39]: > 50% | inhibition [40]: > 50% | inhibition [41]: > 50%
